In patent US20230285435A1, “COMPOSITIONS AND METHODS FOR TREATING VIRAL INFECTIONS” (priority 2020, published 2023):
Counter-ions that a name gives are not always drawn.

Columns and labels:
[1] = system: SARS-CoV2 in Calu-3 cells; type: cell-based
[2] = system: SARS-CoV2 infected Vero-E6 cells and human lung epithelial cells (Calu-3); type: cell-based; design: inhibiting cytopathic effect (% of cells): dose or concentration left out as unconfirmed; settings: for synergy with remdesivir (BLISS independence model, synergyfinder): in combination with remdesivir, synergy score >10 signifies synergy; for efficacy of the agent alone, in words: single agent

| Compound | synergy in combination with remdesivir [1] | other results |
| --- | --- | --- |
| COC(=O)N[C@H](C(=O)N1CCC[C@H]1c1ncc(-c2ccc(-c3ccc(-c4cnc([C@@H]5CCCN5C(=O)[C@@H](NC(=O)OC)C(C)C)[nH]4)cc3)cc2)[nH]1)C(C)C [Daclatasvir dihydrochloride] | synergy | – |
| COC[C@H]1C[C@@H](c2nc(-c3ccc4c(c3)COc3cc5c(ccc6nc([C@@H]7CC[C@H](C)N7C(=O)[C@@H](NC(=O)OC)C(C)C)[nH]c65)cc3-4)c[nH]2)N(C(=O)[C@H](NC(=O)OC)c2ccccc2)C1 [Velpatasvir] | – | synergy with remdesivir (BLISS independence model, synergyfinder) [2]: strongest; efficacy of the agent alone, in words [2]: modest efficacy; inhibiting cytopathic effect (% of cells) ([2]; velpatasvir alone (so in the source)): 16% |
| COC(=O)N[C@H](C(=O)N1CCC[C@H]1C(=O)Nc1ccc([C@@H]2CC[C@@H](c3ccc(NC(=O)[C@@H]4CCCN4C(=O)[C@@H](NC(=O)OC)C(C)C)cc3)N2c2ccc(C(C)(C)C)cc2)cc1)C(C)C [Ombitasvir] | synergy | – |
| Elbasvir | – | synergy with remdesivir (BLISS independence model, synergyfinder) [2]: synergistic |
| COC(=O)N[C@H](C(=O)N1CC2(CC2)C[C@H]1c1ncc(-c2ccc3c(c2)C(F)(F)c2cc(-c4ccc5nc([C@@H]6[C@H]7CC[C@H](C7)N6C(=O)[C@@H](NC(=O)OC)C(C)C)[nH]c5c4)ccc2-3)[nH]1)C(C)C [Ledipasvir] | synergy | – |
| COC(=O)N[C@H](C(=O)N1CC2(CC2)C[C@H]1c1ncc(-c2ccc3c(c2)C(F)(F)c2cc(-c4ccc5nc(C6[C@H]7CC[C@H](C7)N6C(=O)[C@@H](NC(=O)OC)C(C)C)[nH]c5c4)ccc2-3)[nH]1)C(C)C (stereo partly drawn) [Ledipasvir acetone] | synergy | – |
| COC(=O)N[C@H](C(=O)N1CCC[C@H]1c1nc2cc([C@H]3CC[C@H](c4cc5nc([C@@H]6CCCN6C(=O)[C@@H](NC(=O)OC)[C@@H](C)OC)[nH]c5cc4F)N3c3cc(F)c(N4CCC(c5ccc(F)cc5)CC4)c(F)c3)c(F)cc2[nH]1)[C@@H](C)OC [Pibrentasvir] | synergy | – |
| CCC(CC)COC(=O)[C@H](C)N[P@](=O)(OC[C@H]1O[C@@](C#N)(c2ccc3c(N)ncnn23)[C@H](O)[C@@H]1O)Oc1ccccc1 [remdesivir] | – | preventing a virus-caused pathology (% of cells) ([2]; 300 nM remdesivir alone): 7%; efficacy of the agent alone, in words [2]: only active at high uM concentrations |
| COc1c(C)c2c(c(O)c1C/C=C(\C)CCC(=O)O)C(=O)OC2 [Mycophenolic acid] | synergy | – |
